Test results as given in patent US20250353825A1, “CANNABICYCLOL DERIVATIVES AND PREPARATION METHODS THEREOF” (priority 2023, published 2025).
Values after ≈ are worked out from the molar mass of the structure shown.

Columns and labels:
Assay type in all cases: cell-based
[1] = test system: HEK-293T, GSC-3diff, GSC-12diff and 16 tumor cells; assay: MTS cell viability assay, summary over HEK-293T, GSC-3diff, GSC-12diff and 16 tumor cells; details: summary of Table 7 in words
Procedure: (§1) Primary viability screening: (1) the synthesized compounds 3a to 13d were respectively dissolved in DMSO to prepare a 40 μg/mL cannabicyclol and cannabicyclol derivative solutions.
(§2) (2) A control group: a 200 μL DMSO solvent.
(§3) (3) The solutions of compounds 3a to 13d were diluted in a twofold gradient to obtain cannabicyclol and cannabicyclol derivative solutions at concentrations of 40 μg/mL, 20 μg/mL, 10 μg/mL, 5 μg/mL, 2.5 μg/mL, 1.25 μg/mL, and 0.625 μg/mL, and 0.3125 μg/mL, respectively.
(§4) (4) Three glioblastoma stem cells (GSC-3, GSC-12, and GSC-18), three pancreatic cancer cell-derived stem cells (PANC-1-CSC, BXPC-3-CSC, and ASPC1-CSC), three liver cancer cell-derived stem cells (HepG2-CSC, MHCC97H-CSC, and SMMC7721-CSC), HEK-293T cells, 16 tumor cells (U251, U87, T98G, PANC1, BXPC3, ASPC1, HepG2, MHCC97H, SMMC7721, PC3, SKOV3, MDA-MB231, A549, HCT116, HEC-1B, MKN28), and differentiated glioblastoma stem cells (GSC-3diff and GSC-12diff) derived from GSC-3 and GSC-12 (all of the cells were provided by the Laboratory of Tumor Animal Model Preparation and Application Research, West China Hospital, Sichuan University) were inoculated into a 96-well plate at a concentration of 2×10^4 cells/well, and 100 μL of culture medium was then added to each well; […]
(§5) (10) The absorbance value at 490 nm was measured on an enzyme labeling apparatus, and the IC50 value was calculated.

BXPC3-CSC = assay: MTS cell viability assay, BXPC3-CSC; details: Table 6, tumor stem cell, 72 hours; read-out: IC50 against BXPC3-CSC
Procedure: as §1, §2, §3, §4, §5

HepG2 = assay: MTS cell viability assay, HepG2; details: Homo sapiens, Table 7, 72 hours, read-out: IC50 against HepG2
Procedure: as §1, §2, §3, §4, §5

ASPC1 = assay: MTS cell viability assay, ASPC1; details: Homo sapiens, Table 7, 72 hours, read-out: IC50 against ASPC1
Procedure: as §1, §2, §3, §4, §5

HEK-293T = assay: MTS cell viability assay, HEK-293T (293T) normal cells; details: Homo sapiens, HEK-293T, 72 h, read-out: IC50 against HEK-293T
Procedure: as §1, §2, §3
(§6) (4) Three glioblastoma stem cells (GSC-3, GSC-12, and GSC-18), three pancreatic cancer cell-derived stem cells (PANC-1-CSC, BXPC-3-CSC, and ASPC1-CSC), three liver cancer cell-derived stem cells (HepG2-CSC, MHCC97H-CSC, and SMMC7721-CSC), HEK-293T cells, 16 tumor cells (U251, U87, T98G, PANC1, BXPC3, ASPC1, HepG2, MHCC97H, SMMC7721, PC3, SKOV3, MDA-MB231, A549, HCT116, HEC-1B, MKN28), and differentiated glioblastoma stem cells (GSC-3diff and GSC-12diff) derived from GSC-3 and GSC-12 (all of the cells were provided by the Laboratory of Tumor Animal Model Preparation and Application Research, West China Hospital, Sichuan University) were inoculated into a 96-well plate at a concentration of 2×10^4 cells/well, and 100 μL of culture medium was then added to each well;
(§7) (5) 2) HEK-293T, GSC-3diff, GSC-12diff, and the 16 tumor cells were added with DMEM, 10% FBS, and 1% double antibody culture medium. Cancer stem cells (CSCs) were added with serum-free stem cell medium consisting of DMEM/F12, EGF (20 ng/mL), bFGF (20 ng/mL), B27 (1×), and 1% double antibody culture medium.
(§8) (6) Inoculated cells were put into a cell culture incubator for 24 hours, and after the cells were well adhered to the wall, the culture medium in the 96-well plate was discarded.
(§9) (7) 200 μL cannabicyclol and cannabicyclol derivatives solutions at different concentrations were added to the cultured cells.
(§10) (8) The experiment was set up with 3 replicates.
(§11) (9) The 96-well plate was placed in a cell culture incubator, and incubation was continued at 37° C. and 5% CO2 for 72 hours. Then, 100 μL of cannabicyclol and cannabicyclol derivative solution per well was discarded (100 μL of DMSO solvent was discarded for the control group), and 20 μL of LMTS (CellTiter AQueous Non-Radioactive Cell Proliferation Assay, #G3581) was mixed and continued to be placed in the cell incubator for 2 hours of incubation.
as §5

[2] = as above; details: human; primary viability screening, 72 hours, MTS; test concentration not stated; read-out: Cell viability in 293T (%)
Procedure: as §1, §2, §3, §6, §7, §8, §9, §10, §11, §5

HepG2-CSC = assay: Soft agar colony (clone) formation, HepG2-CSC; details: crystal violet, FIG. 4, compound 3a 0, 5 and 5 [sic] μg/mL
Procedure: […] of low-melting-point agarose was dissolved in 12.5 mL of ddH2O to prepare a 3.2% low-melting-point agarose gel. The low-melting-point agarose gel was sterilized by autoclaving at 121° C. and 0.12 MPa for 20 minutes. After sterilization, the low-melting-point agarose gel was maintained at 60° C. in a drying oven for further use.
1.75 mL of 3.2% sterile low-melting-point agarose gel was taken, 5.25 mL of the corresponding complete medium was added, and the two were mixed thoroughly using a pipette to prepare a base gel at a concentration of 0.8%.
1 mL of the base gel was added to each well of a 6-well plate, ensuring that the base gel evenly covered the bottom of each well. The plate was placed at 4° C. for 5 minutes to allow the gel to solidify. After the gel had fully solidified, the plate was warmed at 37° C. for 5 minutes.
6 cells/cell lines (U251, SMMC7721, GSC-3, GSC-12, SMMC7721-CSC, and HepG2-CSC) were individually digested with 1× trypsin for 3 minutes. The corresponding complete culture medium (same as in the application example 1) was added to terminate the digestion. Cells were centrifuged at 1000 rpm for 3 minutes, and the cells were collected and counted. A total of 5×10^3 cells were added to each well, each group was set up with three replicates. […]

GSC-18 = assay: MTS cell viability assay, GSC-18; details: GSC18; Table 6, tumor stem cell, 72 hours; read-out: IC50 against GSC-18
Procedure: as §1, §2, §3, §4, §5

GSC-3 (3#-GSC) = assay: MTS cell viability assay, glioblastoma stem cells GSC-3 (3#-GSC)
Procedure: as §1, §2, §3, §6, §7, §8, §9, §10, §11, §5

## CCCCCc1cc(O)c2c(c1)OC1(C)CCC3C1C2C3(C)C (centres unmarked) [Compound 3a, cannabicyclol]
[1]
  inhibitory effects on HEK-293T, GSC-3diff, GSC-12diff and the 16 tumor cells: no significant inhibitory effects
BXPC3-CSC
  IC50: 2.19 µg/mL (≈ 6.96 µM)
HepG2
  IC50: > 40 µg/mL
ASPC1
  IC50: > 40 µg/mL
HEK-293T
  IC50: > 40 µg/mL
[2]
  viability at 72 h: 82%
HepG2-CSC
  colony formation of HepG2-CSC: significantly inhibited
GSC-18
  IC50: 6.4 µg/mL (≈ 20.4 µM)
GSC-3 (3#-GSC); GSC-3, 72 h, read-out: IC50 against GSC-3
  IC50: 3.85 µg/mL (≈ 12.2 µM)
GSC-3 (3#-GSC); judged in words from preliminary viability screening against 3#-GSC, 293T and U251
  selective anti-glioma stem cell viability: a certain degree of selective anti-glioma stem cell viability
GSC-3 (3#-GSC); primary viability screening, 72 hours, MTS, test concentration not stated
  Cell viability in 3#-GSC (%): 20%
